Laboratory results published in ChEMBL document CHEMBL4480390, “Cink4T, a quinazolinone-based dual inhibitor of Cdk4 and tubulin polymerization, identified via ligand-based virtual screening, for efficient anticancer therapy” (Eur J Med Chem, 2019).
Activity calls are given as the source filed them. The calls are words filed in the database; no cut-off is given here.

Molecular target: Tubulin (Sus scrofa) (UniProt P02554+P02550)
Assay: Inhibition of porcine tubulin polymerization at 3 uM incubated for 1 min by fluorescence based assay
Type: protein assay

Chain of Tubulin (Sus scrofa) (P02550 whole entry, looked up): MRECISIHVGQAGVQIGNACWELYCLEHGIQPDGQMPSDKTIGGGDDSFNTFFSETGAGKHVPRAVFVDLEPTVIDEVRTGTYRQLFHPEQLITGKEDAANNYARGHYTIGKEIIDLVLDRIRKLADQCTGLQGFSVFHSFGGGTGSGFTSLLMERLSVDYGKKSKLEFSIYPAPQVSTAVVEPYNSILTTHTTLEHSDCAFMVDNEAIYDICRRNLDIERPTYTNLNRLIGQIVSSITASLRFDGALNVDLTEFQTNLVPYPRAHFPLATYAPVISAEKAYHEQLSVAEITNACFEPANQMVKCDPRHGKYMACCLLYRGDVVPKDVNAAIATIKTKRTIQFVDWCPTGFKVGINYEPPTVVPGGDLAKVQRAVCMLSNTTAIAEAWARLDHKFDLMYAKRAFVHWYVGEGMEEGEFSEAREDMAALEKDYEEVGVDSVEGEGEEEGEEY
Chain of Tubulin (Sus scrofa) (P02554 whole entry, looked up): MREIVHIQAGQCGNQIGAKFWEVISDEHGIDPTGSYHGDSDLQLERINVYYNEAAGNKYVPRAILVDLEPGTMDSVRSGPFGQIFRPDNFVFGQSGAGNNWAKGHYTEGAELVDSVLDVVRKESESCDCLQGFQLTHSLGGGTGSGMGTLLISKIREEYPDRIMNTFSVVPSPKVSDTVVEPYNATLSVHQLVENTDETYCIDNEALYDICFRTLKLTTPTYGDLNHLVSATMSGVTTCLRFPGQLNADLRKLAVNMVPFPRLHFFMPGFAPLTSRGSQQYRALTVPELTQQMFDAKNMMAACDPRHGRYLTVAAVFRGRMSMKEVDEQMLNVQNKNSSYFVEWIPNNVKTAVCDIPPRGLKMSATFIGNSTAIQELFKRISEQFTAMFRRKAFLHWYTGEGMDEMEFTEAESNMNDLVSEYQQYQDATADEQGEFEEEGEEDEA

| inhibition | SMILES |
| --- | --- |
| Active | CC[C@]1(O)C[C@@H]2CN(CCc3c([nH]c4ccccc34)[C@@](C(=O)OC)(c3cc4c(cc3OC)N(C)[C@H]3[C@@](O)(C(=O)OC)[C@H](OC(C)=O)[C@]5(CC)C=CCN6CC[C@]43[C@@H]65)C2)C1 |
| inactive | CC(=O)O[C@H]1C(=O)[C@@]2(C)[C@H]([C@H](OC(=O)c3ccccc3)[C@]3(O)C[C@H](OC(=O)[C@H](O)[C@@H](NC(=O)c4ccccc4)c4ccccc4)C(C)=C1C3(C)C)[C@]1(OC(C)=O)CO[C@@H]1C[C@@H]2O |
